Data on five molecules can be found in patent US20240239861A1, “GLUCAGON-RECEPTOR SELECTIVE POLYPEPTIDES AND METHODS OF USE THEREOF” (i2O Therapeutics, Inc., priority 2016, published 2024).

Where a SMILES comes first, the peptide text is derived from it. [ ]: non-standard residue; d: D form. Aib = CC(C)(N)C(=O)O

In general, EC50 refers to the concentration at which the effect is half-maximal.

Assay [1] deals with human GCGR (Homo sapiens, UniProt P47871). Kind of assay: Peptide-receptor mediated cAMP accumulation (LANCE Ultra cAMP) in CHO-K1 cells transfected with human GCGR. Format: cell-based. Conditions: Table 3. A general note: cAMP levels reflect the balance of adenylyl cyclase and phosphodiesterase activity.
Sequence of human GCGR (P47871 26-477): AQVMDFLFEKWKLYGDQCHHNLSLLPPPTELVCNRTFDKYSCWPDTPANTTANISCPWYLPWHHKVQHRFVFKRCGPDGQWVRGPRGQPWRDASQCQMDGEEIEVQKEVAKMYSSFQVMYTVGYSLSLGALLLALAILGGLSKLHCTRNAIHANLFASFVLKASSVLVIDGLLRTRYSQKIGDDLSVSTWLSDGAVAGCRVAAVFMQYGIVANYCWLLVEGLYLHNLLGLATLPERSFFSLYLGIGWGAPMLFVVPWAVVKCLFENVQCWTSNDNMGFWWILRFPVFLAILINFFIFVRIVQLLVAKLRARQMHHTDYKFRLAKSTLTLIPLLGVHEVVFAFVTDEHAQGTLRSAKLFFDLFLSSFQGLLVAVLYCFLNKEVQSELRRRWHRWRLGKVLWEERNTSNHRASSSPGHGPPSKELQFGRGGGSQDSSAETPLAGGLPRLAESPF
Assay [2] deals with human GLP-1R (Homo sapiens, UniProt P43220). Briefly: Peptide-receptor mediated cAMP accumulation (LANCE Ultra cAMP) in CHO-K1 cells transfected with human GLP-1R. Format: cell-based. To be noted: hGLP1 pEC50 (cAMP mean (n = 3): 11 point curve starting at 1 nM, Table 3).
Sequence of human GLP-1R (P43220 24-463): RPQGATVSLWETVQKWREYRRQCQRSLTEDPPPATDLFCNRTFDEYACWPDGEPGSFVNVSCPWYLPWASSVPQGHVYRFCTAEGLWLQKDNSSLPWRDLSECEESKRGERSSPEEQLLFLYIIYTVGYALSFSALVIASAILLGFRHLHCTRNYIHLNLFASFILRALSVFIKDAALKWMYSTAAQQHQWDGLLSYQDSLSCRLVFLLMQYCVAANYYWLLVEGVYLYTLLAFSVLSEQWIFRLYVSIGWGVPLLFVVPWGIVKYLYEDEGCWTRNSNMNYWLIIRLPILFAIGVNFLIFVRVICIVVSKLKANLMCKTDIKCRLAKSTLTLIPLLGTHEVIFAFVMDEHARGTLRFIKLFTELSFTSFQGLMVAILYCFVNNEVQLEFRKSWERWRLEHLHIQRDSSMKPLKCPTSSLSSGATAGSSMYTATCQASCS

Regarding `CC(C)C[C@H](NC(=O)[C@H](Cc1c[nH]c2ccccc12)NC(=O)[C@H](CCCCN)NC(=O)[C@H](CO)NC(=O)[C@H](Cc1c[nH]cn1)NC(=O)[C@H](CC(=O)O)NC(=O)[C@H](CO)NC(=O)[C@@H](NC(=O)[C@H](Cc1ccccc1)NC(=O)[C@@H](NC(=O)CNC(=O)[C@H](Cc1c[nH]cn1)NC(=O)[C@H](CO)NC(=O)[C@@H](N)Cc1ccc(O)cc1)[C@@H](C)O)[C@@H](C)O)C(=O)N[C@@H](CC(=O)O)C(=O)NC(C)(C)C(=O)N[C@@H](CCCCN)C(=O)N[C@@H](CCCNC(=N)N)C(=O)N[C@@H](C)C(=O)N[C@@H](CCC(N)=O)C(=O)N[C@@H](CCC(=O)O)C(=O)N[C@@H](Cc1ccccc1)C(=O)N[C@H](C(=O)NC(C)(C)C(=O)N[C@@H](Cc1c[nH]c2ccccc12)C(=O)N[C@@H](CC(C)C)C(=O)N[C@@H](CCC(=O)O)C(=O)N[C@@H](CC(=O)O)C(=O)N[C@@H](CCC(=O)O)C(=O)N1CCC[C@H]1C(=O)N[C@@H](CO)C(=O)N[C@@H](CO)C(=O)NCC(=O)N[C@@H](C)C(=O)N1CCC[C@H]1C(=O)N1CCC[C@H]1C(=O)N1CCC[C@H]1C(=O)N[C@@H](CO)C(=O)O)C(C)C` [Compound A33] (H-YSHGTFTSDHSKWLD[Aib]KRAQEFV[Aib]WLEDEPSSGAPPPS-OH; N-terminus assumed), the EC50 in assay [1] is 0.0126 nM; in assay [2], greater than 1 nM.

In the case of `CC(C)C[C@H](NC(=O)[C@H](Cc1c[nH]c2ccccc12)NC(=O)[C@H](CCCCN)NC(=O)[C@H](CO)NC(=O)[C@H](Cc1c[nH]cn1)NC(=O)[C@H](CC(=O)O)NC(=O)[C@H](CO)NC(=O)[C@@H](NC(=O)[C@H](Cc1ccccc1)NC(=O)[C@@H](NC(=O)CNC(=O)[C@H](Cc1c[nH]cn1)NC(=O)[C@@H](NC(=O)[C@@H](N)Cc1ccc(O)cc1)[C@@H](C)O)[C@@H](C)O)[C@@H](C)O)C(=O)N[C@@H](CC(=O)O)C(=O)NC(C)(C)C(=O)N[C@@H](CCCCN)C(=O)N[C@@H](CCCNC(=N)N)C(=O)N[C@@H](C)C(=O)N[C@@H](CCC(N)=O)C(=O)N[C@@H](CCC(=O)O)C(=O)N[C@@H](Cc1ccccc1)C(=O)N[C@H](C(=O)NC(C)(C)C(=O)N[C@@H](Cc1c[nH]c2ccccc12)C(=O)N[C@@H](CC(C)C)C(=O)N[C@@H](CCC(=O)O)C(=O)N[C@@H](CC(=O)O)C(=O)N[C@@H](CCC(=O)O)C(=O)N1CCC[C@H]1C(=O)N[C@@H](CO)C(=O)N[C@@H](CO)C(=O)NCC(=O)N[C@@H](C)C(=O)N1CCC[C@H]1C(=O)N1CCC[C@H]1C(=O)N1CCC[C@H]1C(=O)N[C@@H](CO)C(=O)O)C(C)C` [Compound A34] (H-YTHGTFTSDHSKWLD[Aib]KRAQEFV[Aib]WLEDEPSSGAPPPS-OH; N-terminus assumed), the values for the EC50 in assay [1] and in assay [2] were 0.0501 nM and greater than 1 nM, respectively.

As to `CC(C)C[C@H](NC(=O)[C@H](Cc1c[nH]c2ccccc12)NC(=O)[C@H](CCCCN)NC(=O)[C@H](CO)NC(=O)[C@H](Cc1c[nH]cn1)NC(=O)[C@H](CC(=O)O)NC(=O)[C@H](CO)NC(=O)[C@@H](NC(=O)[C@H](Cc1ccccc1)NC(=O)[C@@H](NC(=O)CNC(=O)[C@H](Cc1c[nH]cn1)NC(=O)[C@H](CO)NC(=O)[C@@H](N)Cc1ccc(O)cc1)[C@@H](C)O)[C@@H](C)O)C(=O)N[C@@H](CC(=O)O)C(=O)NC(C)(C)C(=O)N[C@@H](C)C(=O)N[C@@H](CCCNC(=N)N)C(=O)N[C@@H](C)C(=O)N[C@@H](CCC(N)=O)C(=O)N[C@@H](CCC(=O)O)C(=O)N[C@@H](Cc1ccccc1)C(=O)N[C@H](C(=O)NC(C)(C)C(=O)N[C@@H](Cc1c[nH]c2ccccc12)C(=O)N[C@@H](CC(C)C)C(=O)N[C@@H](CCC(=O)O)C(=O)N[C@@H](CC(=O)O)C(=O)N[C@@H](CCC(=O)O)C(=O)N1CCC[C@H]1C(=O)N[C@@H](CO)C(=O)N[C@@H](CO)C(=O)NCC(=O)N[C@@H](C)C(=O)N1CCC[C@H]1C(=O)N1CCC[C@H]1C(=O)N1CCC[C@H]1C(=O)N[C@@H](CO)C(=O)O)C(C)C` [Compound A36] (H-YSHGTFTSDHSKWLD[Aib]ARAQEFV[Aib]WLEDEPSSGAPPPS-OH; N-terminus assumed), the EC50 in assay [1] was 0.0631 nM; in assay [2] it was greater than 1 nM.

For the molecule `CC(C)C[C@H](NC(=O)[C@H](Cc1c[nH]c2ccccc12)NC(=O)[C@H](CCCCN)NC(=O)[C@H](CO)NC(=O)[C@H](Cc1ccc(O)cc1)NC(=O)[C@H](CC(=O)O)NC(=O)[C@H](CO)NC(=O)[C@@H](NC(=O)[C@H](Cc1ccccc1)NC(=O)[C@@H](NC(=O)CNC(=O)[C@H](Cc1c[nH]cn1)NC(=O)[C@@H](NC(=O)[C@@H](N)Cc1ccc(O)cc1)[C@@H](C)O)[C@@H](C)O)[C@@H](C)O)C(=O)N[C@@H](CC(=O)O)C(=O)N[C@@H](CO)C(=O)N[C@@H](C)C(=O)N[C@@H](CCCNC(=N)N)C(=O)N[C@@H](C)C(=O)N[C@@H](CCC(N)=O)C(=O)N[C@@H](CCC(=O)O)C(=O)N[C@@H](Cc1ccccc1)C(=O)N[C@H](C(=O)N[C@@H](CCCCN)C(=O)N[C@@H](Cc1c[nH]c2ccccc12)C(=O)N[C@@H](CC(C)C)C(=O)N[C@@H](CCC(=O)O)C(=O)N[C@@H](CC(=O)O)C(=O)N[C@@H](CCC(=O)O)C(=O)N1CCC[C@H]1C(=O)N[C@@H](CO)C(=O)N[C@@H](CO)C(=O)NCC(=O)N[C@@H](C)C(=O)N1CCC[C@H]1C(=O)N1CCC[C@H]1C(=O)N1CCC[C@H]1C(=O)N[C@@H](CO)C(=O)O)C(C)C` [Compound A39] (H-YTHGTFTSDYSKWLDSARAQEFVKWLEDEPSSGAPPPS-OH; N-terminus assumed), the EC50 is 0.398 nM in assay [1] and greater than 1 nM in assay [2].

For the molecule `CC(C)C[C@H](NC(=O)[C@H](Cc1c[nH]c2ccccc12)NC(=O)[C@H](CCCCN)NC(=O)[C@H](CO)NC(=O)[C@H](Cc1c[nH]cn1)NC(=O)[C@H](CC(=O)O)NC(=O)[C@H](CO)NC(=O)[C@@H](NC(=O)[C@H](Cc1ccccc1)NC(=O)[C@@H](NC(=O)CNC(=O)[C@H](Cc1c[nH]cn1)NC(=O)[C@H](CO)NC(=O)[C@@H](N)Cc1ccc(O)cc1)[C@@H](C)O)[C@@H](C)O)C(=O)N[C@@H](CC(=O)O)C(=O)N[C@@H](CO)C(=O)N[C@@H](C)C(=O)N[C@@H](CCCNC(=N)N)C(=O)N[C@@H](C)C(=O)N[C@@H](CCC(N)=O)C(=O)N[C@@H](CCC(=O)O)C(=O)N[C@@H](Cc1ccccc1)C(=O)N[C@H](C(=O)N[C@@H](CCCCN)C(=O)N[C@@H](Cc1c[nH]c2ccccc12)C(=O)N[C@@H](CC(C)C)C(=O)N[C@@H](CCC(=O)O)C(=O)N[C@@H](CC(=O)O)C(=O)N[C@@H](CCC(=O)O)C(=O)N1CCC[C@H]1C(=O)N[C@@H](CO)C(=O)N[C@@H](CO)C(=O)NCC(=O)N[C@@H](C)C(=O)N1CCC[C@H]1C(=O)N1CCC[C@H]1C(=O)N1CCC[C@H]1C(=O)N[C@@H](CO)C(=O)O)C(C)C` [Compound A40] (H-YSHGTFTSDHSKWLDSARAQEFVKWLEDEPSSGAPPPS-OH; N-terminus assumed), the values for the EC50 in assay [1] and in assay [2] were 0.0794 nM and greater than 1 nM, respectively.
